Here are results for eleven compounds from patent US9487470B2, “4-((substituted phenyl) difluoromethyl) phenoxy carboxylic acid derivative, and preparation method and uses thereof” (Zhejiang Hisun Pharmaceutical Co., Ltd., priority 2012, dated 2016).

Data set [1] has as its system hyperlipoidemia model of Goldenhamsters (blood plasma TC, TG, HDL-C, LDL-C). In words: Pharmacological test group 1: effects on blood lipid levels of Goldenhamsters in a hyperlipoidemia model. Type of data set: in vivo. To be noted: for regulating effects on the levels of blood lipid (conclusion from table 2) / effect on HDL-C, in comparison with the results before administration (in words) / effect on TC, in comparison with the results before administration (in words) / effect on TG, in comparison with the results before administration (in words) / therapeutic effect compared with fenofibrate (conclusion from table 2): 40 mg/kg; for HDL-C, after administration / LDL-C, after administration / TC, after administration / TG, after administration: 40 mg/kg intragastric, 1 week, high-lipid feed continued, blood plasma, x±s, asterisks = P vs before administration; for effect on HDL-C, in comparison with the results before administration (in words) / effect on TC, in comparison with the results before administration (in words) / effect on TG, in comparison with the results before administration (in words): t test after vs before administration; for therapeutic effect compared with fenofibrate (conclusion from table 2): fenofibrate 40 mg/kg. The source says: Animals: 134 male Goldenhamsters, aged 8 weeks, body weight 80-100 g, provided by Vital River Laboratories, Beijing. […] Kits: The kits for total cholesterol (TC), triglyceride (TG), and high density lipoprotein cholesterol (HDL-C) were provided by SYSMEX, and the kits for low density lipoprotein cholesterol (LDL-C) were provided by Shanghai Kehua Bio-engineering Co., Ltd. Apparatus: SYSMEX Automatic Biochemistry Analyzer, Bechman centrifuge, Setoris balance. The animals were acclimatized and fed for 1 week, ad lib, light cycle was 10 h/14 h, and then feeds with high lipid content were fed to the animals (formulation: 0.3% cholesterol, 20% palm oil, and 79.7% basic feeds). The animals were fed for 10 days, and were fasted at 4:00 pm on the 10th day (fasted for 16 h). On the 11th day, the animals were anaesthetized with ethyl ether, weighted, and then 0.5 ml blood was collected from vena orbitalis posterior. The blood was anticoagulated with heparin, and was centrifugated at 5000 rpm for 10 min. The blood plasma was taken, and the levels of TC, TG, HDL-C, and LDL-C in blood plasma were determined using automatic biochemistry analyzer. The animals were acclimatized and fed for 1 week, ad lib, light cycle was 10 h/14 h, and then feeds with high lipid content were fed to the animals (formulation: 0.3% cholesterol, 20% palm oil, and 79.7% basic feeds). The animals were fed for 2 weeks, and were fasted at 4:00 pm on the […] (fasted for 16 h). On the 22nd day, the animals were anaesthetized with ethyl ether, weighted, and then 0.5 ml blood was collected from vena orbitalis posterior. The blood was anticoagulated with heparin, and was centrifugated at 5000 rpm for 10 min. The blood plasma was taken, and the levels of TC, TG, HDL-C, and LDL-C in blood plasma were determined using automatic biochemistry analyzer. […] During the administration, feeds with high lipid content were continuously fed to the animals. The animals were fed for 1 week, and were fasted at 4:00 pm on the 7th day. On the 8th day, the animals were anaesthetized with ethyl ether, weighted, and then 0.5 ml blood was collected from vena orbitalis posterior. The blood was anticoagulated with heparin, and was centrifugated at 5000 rpm for 10 min. The blood plasma was taken, and the levels of TC, TG, HDL-C, and LDL-C in blood plasma were determined using automatic biochemistry analyzer. The results were represented by x±s, and t test was employed for comparing the results obtained before and after administration.

A short description of data set [2]: Solubility in water (remark on the test drugs). In kind it is physicochemical. The note with it: formulated with 20% solutol.
Data set [3] deals with hyperlipoidemia model of Goldenhamsters (blood plasma TC, HDL-C, LDL-C). In words: Pharmacological test group 2: effects on blood lipid levels of Goldenhamsters in hyperlipoidemia model. In kind it is in vivo. To be noted: for HDL-C, after administration / LDL-C, after administration / TC, after administration: 40 mg/kg intragastric, 1 week, high-lipid feed continued, asterisks = P vs before administration; for HDL-C, after administration / LDL-C, after administration / TC, after administration / HDL-C, before administration / LDL-C, before administration / TC, before administration: blood plasma, x±s; for HDL-C, before administration / LDL-C, before administration / TC, before administration: baseline of the group before administration, high-lipid feed 2 weeks, 6 animals. The source says:
Animals: 120 male Goldenhamsters, aged 8 weeks, body weight 80-100 g, provided by Vital River Laboratories, Beijing.
Kits: The kits for total cholesterol (TC) and high density lipoprotein cholesterol (HDL-C) were provided by SYSMEX, and the kits for low density lipoprotein cholesterol (LDL-C) were provided by Shanghai Kehua Bio-engineering Co., Ltd.
Apparatus: SYSMEX Automatic Biochemistry Analyzer, Bechman centrifuge, Setoris balance.
The animals were acclimatized and fed for 1 week, ad lib, light cycle was 10 h/14 h, and then feeds with high lipid content were fed to the animals (formulation: 0.3% cholesterol, 20% palm oil, and 79.7% basic feeds). The animals were fed for 2 weeks, and were fasted at 4:00 pm on the 14th day (fasted for 16 h). On the 15th day, the animals were anaesthetized with ethyl ether, weighted, and then 0.5 ml blood was collected from vena orbitalis posterior. The blood was anticoagulated with heparin, and was centrifugated at 5000 rpm for 10 min. The blood plasma was taken, and the levels of TC, HDL-C, and LDL-C in blood plasma were determined using automatic biochemistry analyzer.
During the administration, feeds with high lipid content were continuously fed to the animals. The animals were fed for 1 week, and were fasted at 4:00 pm on the 7th day. On the 8th day, the animals were anaesthetized with ethyl ether, weighted, and then 0.5 ml blood was collected from vena orbitalis posterior. The blood was anticoagulated with heparin, and was centrifugated at 5000 rpm for 10 min. The blood plasma was taken, and the levels of TC, HDL-C, and LDL-C in blood plasma were determined using automatic biochemistry analyzer.
The results were represented by x±s, and t test was employed for comparing the results obtained before and after administration.

Where [4] appears, read: 40 mg/kg, t test after vs before administration.

Turning to `CC(C)OC(=O)C(C)(C)Oc1ccc(C(F)(F)c2ccc(F)cc2)cc1` [HS003-006, Isopropyl 2-(4-((4-fluorophenyl)difluoromethyl)phenoxy)-2-methylpropionate], in data set [1], the “regulating effects on the levels of blood lipid (conclusion from table 2)” value (from here on “regulating effects on the levels”) is “tend to the effects of significantly decreasing TG, TC, and LDL-C”; the “HDL-C, after administration” value was determined as 3.64 ± 0.31; the “LDL-C, after administration” value amounted to 1.02 ± 0.27; the “TC, after administration” value worked out at 8.96 ± 0.77. In data set [1], the “TG, after administration” value turned out to be 1.06 ± 0.29; the “effect on HDL-C, in comparison with the results before administration (in words)” value (shortened to “effect on HDL-C, in comparison”) is recorded as “increases”; the “effect on TC, in comparison with the results before administration (in words)” value (from here on “effect on TC, in comparison”) is on record as “significantly decreases”; the “effect on TG, in comparison with the results before administration (in words)” value (“effect on TG, in comparison” for short) was “significantly decreases”.

Regarding `CC(C)OC(=O)C(C)(C)Oc1ccc(C(F)(F)c2ccc(C(F)(F)F)cc2)cc1` [HS003-007, Isopropyl 2-(4-((4-trifluoromethylphenyl)difluoromethyl)phenoxy)-2-methylpropionate], in data set [1], the “regulating effects on the levels” value was “tend to the effects of significantly decreasing TG, TC, and LDL-C”; the “HDL-C, after administration” value amounted to 2.99 ± 0.13; the “LDL-C, after administration” value is 1.26 ± 0.22; the “TC, after administration” value is on record as 7.42 ± 0.71. Further, in data set [1], the “TG, after administration” value is recorded as 2.12 ± 0.43 and the “effect on TC, in comparison” value is given as “significantly decreases”.

Turning to `Cc1ccc(C(F)(F)c2ccc(OC(C)(C)C(=O)OC(C)C)cc2)cc1` [HS003-009, Isopropyl 2-(4-((4-methylphenyl)difluoromethyl)phenoxy)-2-methylpropionate], in data set [2], the solubility in water result was “insoluble”.

With `CC(C)OC(=O)C(C)(C)Oc1ccc(C(F)(F)c2cccc(Cl)c2)cc1` [HS003-011, Isopropyl 2-(4-((3-chlorophenyl)difluoromethyl)phenoxy)-2-methylpropionate], the “blood lipid-regulating effects (conclusion from table 3)” value in data set [3] (40 mg/kg) is “excellent blood lipid-regulating effects”. In data set [3], the “HDL-C, after administration” value came out at 1.93 ± 0.91; the “LDL-C, after administration” value was determined as 2.21 ± 0.91; the “TC, after administration” value amounted to 11.94 ± 2.71; the “HDL-C, before administration” value is reported as 1.46 ± 0.16. In data set [3], the “LDL-C, before administration” value worked out at 4.02 ± 1.34 and the “TC, before administration” value turned out to be 13.91 ± 2.34. Besides, in data set [3] (setting [4]), the “effect on HDL-C, in comparison” value is recorded as “increase” and the “effect on LDL-C, in comparison with the results before administration (in words)” value is “significantly decreases”. Further, the solubility in water entry in data set [2] is listed as “insoluble”.

As for `Cc1cccc(C(F)(F)c2ccc(OC(C)(C)C(=O)OC(C)C)cc2)c1` [HS003-012, Isopropyl 2-(4-((3-methylphenyl)difluoromethyl)phenoxy)-2-methylpropionate], the solubility in water result in data set [2] is “insoluble”.

`CC(C)OC(=O)C(C)(C)Oc1ccc(C(F)(F)c2cccc(C(F)(F)F)c2)cc1` [HS003-013, Isopropyl 2-(4-((3-trifluoromethylphenyl)difluoromethyl)phenoxy)-2-methylpropionate]: in data set [1], the “regulating effects on the levels” value is “tend to the effects of significantly decreasing TG, TC, and LDL-C”; the “HDL-C, after administration” value came out at 3.12 ± 0.25; the “LDL-C, after administration” value came to 1.46 ± 0.46; the “TC, after administration” value was found to be 8.93 ± 0.53. In data set [1], the “TG, after administration” value turned out to be 1.84 ± 0.45 and the “effect on TC, in comparison” value was “significantly decreases”.

For the compound `Cc1ccccc1C(F)(F)c1ccc(OC(C)(C)C(=O)OC(C)C)cc1` [HS003-015, Isopropyl 2-(4-((2-methylphenyl)difluoromethyl)phenoxy)-2-methylpropionate], in data set [3], the “HDL-C, after administration” value is reported as 1.77 ± 0.18; the “LDL-C, after administration” value came to 2.26 ± 1.03; the “TC, after administration” value came to 15.3 ± 3.74; the “HDL-C, before administration” value came to 1.54 ± 0.07. Further, in data set [3], the “LDL-C, before administration” value stood at 3.14 ± 1.22 and the “TC, before administration” value is given as 13.99 ± 2.3. Moreover, the “effect on HDL-C, in comparison” value in data set [3] (setting [4]) was “significantly increases”. Moreover, the solubility in water result in data set [2] was “insoluble”.

`CC(C)OC(=O)C(C)(C)Oc1ccc(C(F)(F)c2ccccc2C(F)(F)F)cc1` [HS003-016, Isopropyl 2-(4-((2-trifluoromethylphenyl)difluoromethyl)phenoxy)-2-methylpropionate]: in data set [1], the “regulating effects on the levels” value is “tend to the effects of significantly decreasing TG, TC, and LDL-C”; the “HDL-C, after administration” value is given as 3.40 ± 0.32; the “LDL-C, after administration” value stood at 1.0 ± 0.23; the “TC, after administration” value is given as 8.44 ± 1.12. In addition, in data set [1], the “TG, after administration” value came to 1.23 ± 0.42 and the “effect on TC, in comparison” value is recorded as “significantly decreases”.

`COC(=O)c1ccc(C(F)(F)c2ccc(OC(C)(C)C(=O)OC(C)C)cc2)cc1` [HS003-017, Isopropyl 2-(4-((4-methoxyacylphenyl)difluoromethyl)phenoxy)-2-methylpropionate]: in data set [1], the “regulating effects on the levels” value is “tend to the effect of significantly decreasing TG and increasing HDL-C”; the “HDL-C, after administration” value worked out at 4.09 ± 0.18; the “LDL-C, after administration” value is 1.41 ± 0.34; the “TC, after administration” value was found to be 11.61 ± 1.42. In data set [1], the “TG, after administration” value stood at 0.81 ± 0.15; the “therapeutic effect compared with fenofibrate (conclusion from table 2)” value was “outstanding therapeutic effects on decreasing TG, and are significantly superior to fenofibrate”; the “effect on TG, in comparison” value is “significantly decreases”.

For the compound `O=C(COc1ccc(C(F)(F)c2ccc(Cl)cc2)cc1)OCc1ccccc1` [HS003-021, Benzyl 2-(4-((4-chlorophenyl)difluoromethyl)phenoxy)-acetate], in data set [1], the “regulating effects on the levels” value was “tend to the effect of significantly decreasing TG and increasing HDL-C”; the “HDL-C, after administration” value is given as 4.46 ± 0.23; the “LDL-C, after administration” value came to 2.08 ± 0.89; the “TC, after administration” value amounted to 13.37 ± 3.3. In addition, in data set [1], the “TG, after administration” value came out at 1.1 ± 0.53; the “effect on HDL-C, in comparison” value was “significantly increases”; the “effect on TG, in comparison” value is “significantly decreases”.

Regarding `CCOC(=O)CCCOc1ccc(C(F)(F)c2ccc(Cl)cc2)cc1` [HS003-026, Ethyl 4-(4-((4-chlorophenyl)difluoromethyl)phenoxy)butyrate], in data set [1], the “regulating effects on the levels” value is “tend to the effect of significantly decreasing TG and increasing HDL-C”; the “HDL-C, after administration” value is recorded as 4.13 ± 0.32; the “LDL-C, after administration” value is 1.69 ± 0.47; the “TC, after administration” value is recorded as 11.18 ± 1.6. In data set [1], the “TG, after administration” value is 0.82 ± 0.24; the “therapeutic effect compared with fenofibrate (conclusion from table 2)” value was “outstanding therapeutic effects on decreasing TG, and are significantly superior to fenofibrate”; the “effect on HDL-C, in comparison” value is listed as “significantly increases”; the “effect on TG, in comparison” value is “significantly decreases”.
